Source: paper PMC7082846 (ACS infectious diseases, 2019)
Converted amounts (≈) assume the structure as drawn. “And” between values parts separate entries of the source, which are not always exact repeats. Identical values can stand only once.

What was measured:
cGAS-STING pathway = test: ISG54 luciferase reporter assay in HepAD38/cGAS-STING/ISG54Luc cells; format: cell-based, human; settings: 4 h treatment
THF cells [1] = test: Cytokine response
[2] = test system: PBMC-derived dendritic cells; test: Cytokine mRNA induction; settings: BNBC 100 μM or LPS 10 μg/ml, 6 h
[3] = Plasma protein binding, mouse; format: in vitro ADME
human STING [4] = biological target: T1, human STING (Homo sapiens, UniProt Q86WV6); test: Cytokine mRNA induction; format: cell-based; settings: 6 h, qRT-PCR
T1 sequence (Q86WV6 whole entry): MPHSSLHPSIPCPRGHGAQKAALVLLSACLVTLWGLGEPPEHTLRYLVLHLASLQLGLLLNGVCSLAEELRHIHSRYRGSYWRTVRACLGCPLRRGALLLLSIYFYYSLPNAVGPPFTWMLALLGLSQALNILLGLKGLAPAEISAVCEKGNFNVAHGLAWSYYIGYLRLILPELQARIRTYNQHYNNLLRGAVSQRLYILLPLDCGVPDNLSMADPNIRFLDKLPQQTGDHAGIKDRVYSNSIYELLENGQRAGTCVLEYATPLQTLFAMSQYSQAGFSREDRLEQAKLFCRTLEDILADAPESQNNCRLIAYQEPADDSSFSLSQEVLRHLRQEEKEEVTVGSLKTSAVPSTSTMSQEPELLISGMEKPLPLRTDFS

[5] = Aqueous solubility in PBS; format: physicochemical
mouse STING = biological target: T2, mouse STING (Mus musculus, UniProt Q3TBT3); test: IFN-β mRNA induction; format: cell-based; settings: HepG2/mSTING cells, 6 h, qRT-PCR
T2 sequence (Q3TBT3 1-378): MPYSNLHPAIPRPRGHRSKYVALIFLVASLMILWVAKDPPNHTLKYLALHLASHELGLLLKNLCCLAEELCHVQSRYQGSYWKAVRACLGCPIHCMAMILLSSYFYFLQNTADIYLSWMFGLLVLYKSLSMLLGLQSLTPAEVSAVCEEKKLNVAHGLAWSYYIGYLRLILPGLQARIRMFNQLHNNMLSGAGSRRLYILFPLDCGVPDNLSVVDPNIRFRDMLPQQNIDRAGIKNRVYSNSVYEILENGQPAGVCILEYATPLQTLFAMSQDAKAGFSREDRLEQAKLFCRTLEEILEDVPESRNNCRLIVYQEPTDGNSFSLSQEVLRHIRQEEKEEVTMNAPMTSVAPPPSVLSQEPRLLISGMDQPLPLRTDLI

[6] = Plasma protein binding, human; format: in vitro ADME
[7] = test system: cytochrome P450 (Cyp) enzymes (CYP1A2, 2A6, 2B6, 2C8, 2C9, 2C19, 2D6, CYP2E1 and 3A4); test: Cytochrome P450 inhibition panel; format: in vitro ADME; settings: inhibition = greater than 50% inhibition at 10 μM
human STING [8] = biological target: T1, human STING; test: ISG54 luciferase reporter assay in HepG2/STING/ISG54Luc cells; format: cell-based
Zika virus (ZIKV) = test: Antiviral assay, pre-treated THF cells infected with ZIKV; format: cell-based, Zika virus (PRVABC59 strain); settings: THF cells pre-treated 8 h
Caco-2 permeability = format: in vitro ADME; settings: human
human STING [9] = biological target: T1, human STING; test: IRF3 phosphorylation; format: cell-based; settings: 100 μM, 2 h; HepG2/STING vs HepG2/STINGΔC cells
THF cells [10] = test: Cytotoxicity in THF cells; format: cell-based, human
[11] = test system: PBMC-derived dendritic cells; test: CD80 expression by flow cytometry in PBMC-derived dendritic cells; format: cell-based, human; settings: BNBC 50 μM or LPS 10 μg/ml, 48 h; gated from CD11c+ cells
[12] = Metabolic stability in human liver microsomes; format: in vitro ADME
[13] = Metabolic stability in mouse liver microsomes; format: in vitro ADME
human PBMCs = test: Cytokine mRNA induction; settings: 6 h, qRT-PCR
[14] = biological target: human STING with truncation of carboxyl-terminal domain (CTD) (Homo sapiens, UniProt Q86WV6); test: ISG54 luciferase reporter assay in HepAD38/cGAS-STINGΔC/ISG54Luc cells; format: cell-based; settings: 4 h treatment
human STING with truncation of carboxyl-terminal domain (CTD), sequence (Q86WV6 1-340 limits assumed): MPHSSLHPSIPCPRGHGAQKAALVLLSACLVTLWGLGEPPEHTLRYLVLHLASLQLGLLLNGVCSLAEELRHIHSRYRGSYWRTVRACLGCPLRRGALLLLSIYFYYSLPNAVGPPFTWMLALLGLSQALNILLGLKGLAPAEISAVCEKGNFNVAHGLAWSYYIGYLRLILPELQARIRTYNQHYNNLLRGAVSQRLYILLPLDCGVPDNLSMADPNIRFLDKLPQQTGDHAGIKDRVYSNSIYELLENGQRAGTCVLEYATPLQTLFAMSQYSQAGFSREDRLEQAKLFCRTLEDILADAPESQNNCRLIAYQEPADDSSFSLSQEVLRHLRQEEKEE

Yellow fever virus (YFV) = format: cell-based, Yellow fever virus (17D strain); settings: THF cells pre-treated 8 h
[15] = test system: HepAD38/cGAS-STING/ISG54Luc cells; format: cell-based; settings: human, 4 h
Dengue virus (DENV) = format: cell-based, dengue virus (serotype 2, New Guinea C strain); settings: THF cells pre-treated 8 h
[16] = MOI 0.1, 48 h, qRT-PCR, maximal reduction

O=C(Nc1cccc2ccccc12)c1cc2c(cc1Br)OCO2 [BNBC, 6-bromo-N-(naphthalen-1-yl)benzo[d][1,3]dioxole-5-carboxamide]
Induction of ISG54-driven luciferase expression (cGAS-STING pathway): induced luciferase expression in a concentration-dependent manner
Effect of STING knockout on compound-induced IFN-β mRNA expression (THF cells [1]; THF cells with knockout of STING, but not TRIF or IPS-1 (MAVS), 50 μM, 6 h): completely abolished
Induction of cytokine mRNA and IFN-β secretion (THF cells [1]; THF cells, mRNA 6 h, ELISA 18 h): concentration-dependently induced IFN-β, IL-28A and IL-6 mRNA expression as well as secretion of IFN-β into culture media
Induction of cytokine mRNAs [2]: efficiently induced the expression of IFN-β and IL-29 mRNAs and to a lesser extent, TNF-α and IL-6 mRNAs
fraction unbound [3]: 0.0212
Induction of IFN-β, IL29 (IFN-λ1) and TNF-α mRNA expression (human STING [4]; HepG2/STING cells): concentration-dependently induced IFN-β, IL29 (IFN-λ1) and TNF-α mRNA expression
solubility ([5]; pH 4, aqueous buffer): 3.57 µM (≈ 1.32 µg/mL)
solubility ([5]; pH 7.4, aqueous buffer): 2.62 µM (≈ 0.97 µg/mL)
Induction of IFN-β mRNA expression (mouse STING): not in parental HepG2 cells, HepG2/STINGΔC cells and HepG2-derived cell line expressing mouse STING (HepG2/mSTING)
fraction unbound [6]: 0.0266
Cyp IC50 < 10 μM (number of Cyps/reactions inhibited out of 10) [7]: 5 out of 10 and 5/10
Induction of ISG54 promoter-driven luciferase expression (human STING [8]; HepG2/STING/ISG54 reporter cells lacking cGAS): concentration-dependently induced ISG54 driven luciferase expression
MinEC5X (human STING [8]; Minimum Effective Concentration to induce 5-fold luciferase activity relative to mock-treated control, HepG2/STING/ISG54Luc cells, 4 h): 2.2 µM
Maximum induction (fold) (human STING [8]; maximum fold of luciferase induction, HepG2/STING/ISG54Luc cells, 4 h): 20.5 fold
Reduction of intracellular ZIKV RNA level (Zika virus (ZIKV); [16]): ≤ 800 fold
Papp A→B (Caco-2 permeability): 14.5 ×10⁻⁶ cm/s
Papp B→A (Caco-2 permeability): 5.98 ×10⁻⁶ cm/s
efflux ratio (Caco-2 permeability): 0.41
IRF3 phosphorylation and nuclear translocation (human STING [9]): only induced IRF3 phosphorylation and nuclear translocation in HepG2/STING cells
Cytotoxicity (THF cells [10]): absence of cytotoxicity
Induction of CD80 expression [11]: significantly induced expression of CD80
half-life [12]: 20 min
half-life [13]: 2.21 min
Induction of cytokine expression (human PBMCs): efficiently induced expression of type I and type III IFN, but to a lesser extent, TNF-α
Induction of ISG54-driven luciferase expression [14]: did not induce luciferase expression
Reduction of intracellular YFV RNA level (Yellow fever virus (YFV); [16]): ≤ 150 fold
Cytotoxicity: concentration up to which no cytotoxicity was detected [15]: > 200 µM
Reduction of intracellular DENV RNA level (Dengue virus (DENV); [16]): up to 90 fold

Cc1ccc2c(=O)c3cccc(CC(=O)O)c3oc2c1C [DMXAA, 5’,6’-dimethylxanthenone-4-acetic acid, reference compound]
Induction of IFN-β mRNA expression (human STING [4]; HepG2/STING cells expressing human STING): not in HepG2/STING cells

O=C(NCc1ccco1)c1ccc2c(c1)N(Cc1c(F)cccc1Cl)C(=O)CS2 [G10, reference compound]
Reduction of ZIKV RNA (Zika virus (ZIKV); compared with BNBC): reduced virial RNAs in similar potencies
Reduction of YFV RNA (Yellow fever virus (YFV); compared with BNBC): reduced virial RNAs in similar potencies
Reduction of DENV RNA (Dengue virus (DENV); compared with BNBC): reduced virial RNAs in similar potencies

Lipopolysaccharides [LPS, reference compound]
Induction of cytokine mRNAs [2]: efficiently induced the expression of IFN-β and IL-29 mRNAs and to a lesser extent, TNF-α and IL-6 mRNAs
Induction of CD80 expression [11]: significantly induced expression of CD80
